According to patent US20250205344A1, “2,4-DIOXOTETRAHYDROPYRIMIDINYL DERATIVES AS DEGRONS IN PROTACS” (GLAXOSMITHKLINE INTELLECTUAL PROPERTY DEVELOPMENT LIMITED, priority 2022, published 2025):
Counter-ions that a name gives are not always drawn.

Biological target: T1, Androgen Receptor (Homo sapiens, UniProt P10275, T878A)
T1 construct: the AR gene was modified, using CRISPR/Cas9 editing, so the expressed AR protein included an 11 amino acid HiBiT tag; endogenous in cells; host or cells: clonal LnCaP-derived line, AR gene edited by CRISPR/Cas9
T1 sequence (P10275 whole entry T878A): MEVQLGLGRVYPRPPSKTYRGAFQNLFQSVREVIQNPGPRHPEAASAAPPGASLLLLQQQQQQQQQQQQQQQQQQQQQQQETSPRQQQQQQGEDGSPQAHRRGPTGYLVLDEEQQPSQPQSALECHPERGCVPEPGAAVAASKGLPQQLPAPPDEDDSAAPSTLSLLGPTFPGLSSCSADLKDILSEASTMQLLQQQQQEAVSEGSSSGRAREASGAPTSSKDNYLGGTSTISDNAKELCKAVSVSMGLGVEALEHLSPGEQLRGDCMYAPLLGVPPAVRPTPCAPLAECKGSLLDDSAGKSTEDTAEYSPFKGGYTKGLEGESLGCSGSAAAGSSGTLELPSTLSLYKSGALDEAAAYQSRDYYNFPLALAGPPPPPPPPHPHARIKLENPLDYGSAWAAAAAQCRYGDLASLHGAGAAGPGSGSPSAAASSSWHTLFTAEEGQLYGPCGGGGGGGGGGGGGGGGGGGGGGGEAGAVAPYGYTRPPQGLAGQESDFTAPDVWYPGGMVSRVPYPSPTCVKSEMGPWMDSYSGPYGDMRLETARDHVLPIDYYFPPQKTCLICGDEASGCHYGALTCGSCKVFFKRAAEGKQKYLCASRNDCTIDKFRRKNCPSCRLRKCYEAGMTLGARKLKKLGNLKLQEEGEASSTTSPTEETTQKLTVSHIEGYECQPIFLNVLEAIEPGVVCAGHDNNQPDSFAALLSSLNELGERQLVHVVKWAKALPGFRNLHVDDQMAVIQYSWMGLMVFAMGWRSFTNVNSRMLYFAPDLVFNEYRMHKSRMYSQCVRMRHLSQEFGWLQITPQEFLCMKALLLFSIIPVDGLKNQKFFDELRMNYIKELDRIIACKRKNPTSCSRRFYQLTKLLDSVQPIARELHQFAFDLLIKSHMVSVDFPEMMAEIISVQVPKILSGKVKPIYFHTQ
T1 sequence (Q96SW2 whole entry partner): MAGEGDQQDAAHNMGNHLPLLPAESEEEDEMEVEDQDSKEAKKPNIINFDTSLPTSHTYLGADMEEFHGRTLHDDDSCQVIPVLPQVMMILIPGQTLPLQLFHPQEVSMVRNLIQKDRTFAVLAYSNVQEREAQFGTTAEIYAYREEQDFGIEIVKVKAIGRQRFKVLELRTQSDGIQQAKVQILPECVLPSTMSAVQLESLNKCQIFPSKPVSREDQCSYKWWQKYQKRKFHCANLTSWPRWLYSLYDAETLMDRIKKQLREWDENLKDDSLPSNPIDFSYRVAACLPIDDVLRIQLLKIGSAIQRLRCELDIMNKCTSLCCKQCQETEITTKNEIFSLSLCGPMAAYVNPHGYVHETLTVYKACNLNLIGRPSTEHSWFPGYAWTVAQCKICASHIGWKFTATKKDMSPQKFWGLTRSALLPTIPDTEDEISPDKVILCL
T1 sequence (Q16531 whole entry partner): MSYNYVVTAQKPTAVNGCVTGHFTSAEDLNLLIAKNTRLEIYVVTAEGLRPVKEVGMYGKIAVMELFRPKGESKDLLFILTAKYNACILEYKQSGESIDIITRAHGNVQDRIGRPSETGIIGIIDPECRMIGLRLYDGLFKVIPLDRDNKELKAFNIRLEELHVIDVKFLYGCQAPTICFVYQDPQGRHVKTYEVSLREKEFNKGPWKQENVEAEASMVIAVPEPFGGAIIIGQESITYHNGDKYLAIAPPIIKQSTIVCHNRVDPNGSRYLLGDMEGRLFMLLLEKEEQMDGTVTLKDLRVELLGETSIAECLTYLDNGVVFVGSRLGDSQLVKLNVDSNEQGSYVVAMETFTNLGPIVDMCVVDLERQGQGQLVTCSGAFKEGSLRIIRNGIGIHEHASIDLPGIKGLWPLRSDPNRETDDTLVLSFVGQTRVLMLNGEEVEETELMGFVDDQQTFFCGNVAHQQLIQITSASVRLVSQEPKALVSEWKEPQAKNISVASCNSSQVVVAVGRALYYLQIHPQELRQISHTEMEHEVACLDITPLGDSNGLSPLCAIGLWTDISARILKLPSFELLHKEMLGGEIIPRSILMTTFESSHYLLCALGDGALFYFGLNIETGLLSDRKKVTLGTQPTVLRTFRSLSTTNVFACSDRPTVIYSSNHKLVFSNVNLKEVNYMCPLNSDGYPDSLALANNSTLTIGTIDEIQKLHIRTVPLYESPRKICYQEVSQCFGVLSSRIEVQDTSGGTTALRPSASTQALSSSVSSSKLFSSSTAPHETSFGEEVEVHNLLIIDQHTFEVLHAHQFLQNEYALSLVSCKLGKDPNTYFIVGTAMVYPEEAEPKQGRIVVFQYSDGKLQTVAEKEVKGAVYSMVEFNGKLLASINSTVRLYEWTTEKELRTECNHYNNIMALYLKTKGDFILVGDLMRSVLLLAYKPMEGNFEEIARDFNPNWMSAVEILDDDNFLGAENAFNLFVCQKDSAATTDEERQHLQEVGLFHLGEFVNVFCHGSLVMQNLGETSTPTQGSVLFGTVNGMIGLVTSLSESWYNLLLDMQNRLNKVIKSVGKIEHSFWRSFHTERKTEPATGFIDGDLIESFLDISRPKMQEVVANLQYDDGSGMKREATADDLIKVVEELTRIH
Test: Androgen Receptor Degradation Assay (Nano-Glo HiBiT)
Format: cell-based
Details: LNCaP, 18 h, HiBiT-tagged AR in human LnCaP cells, read-out: mean asymptote max
Method: Degradation of Androgen Receptor protein in human LnCaP cells treated with PROTACs was quantified using the Nano-Glo® HiBiT Lytic Detection System (Promega) in 384 well assay plate format. A clonal LnCaP derived cell line was first established in which the AR gene was modified, using CRISPR/Cas9 editing, so the expressed AR protein included an 11 amino acid HiBiT tag at its amino-terminus. 10 mM DMSO stock solutions of PROTACs were prepared and diluted across an 11 concentration, 3 fold increment range, and 25 nL dispensed into a white opaque bottomed 384 well assay plate (Thermofisher) using an acoustic ECHO dispenser (Labcyte). […] For the assay, cells were detached from flask and resuspended with assay medium (FluoroBrite™ DMEM supplemented with 10% heat inactivated FBS, penicillin 50 U/mL and streptomycin 50 ug/mL (Thermofisher)). The cell suspension was centrifuged at 400 g for 5 min and the pellet resuspended in assay medium. 25 μL of cell suspension containing 10,000 cells was dispensed into each well of the assay plate containing the test compounds, which was then incubated for 18 h at 37° C./5% CO2. Control wells were included on each assay plate, with assay medium without cells being the no AR remaining 100% effect control, and cells treated with DMSO vehicle only, without PROTAC, the 0% effect control. 25 μL of Nano-Glo® HiBiT lysis buffer supplemented with LgBiT protein and Nano-Glo® substrate (Promega) was added to each well and the plate shaken at 500 rpm for 10 min at room temperature. The intensity of luminescence was measured using a PHERAstar microplate reader (BMG Labtech) and the % AR protein remaining in each well calculated by normalising the raw luminescence value to the above control wells. Parameters corresponding to the potency and efficacy estimates of the PROTACs were obtained from these normalised luminescence values using software (IDBS ActivityBase). These included the DC50 and the Dmax estimates. Two versions of the DC50, called relative DC50 and absolute DC50, were typically generated. These are the inflection point of a fitted 4 parameter sigmoidal response curve and the interpolated concentration of PROTAC corresponding to 50% of the protein being degraded, respectively. The Dmax parameter was the maximum experimentally observed degradation and the asymptote max parameter the fitted response curve asymptote maximum.

| Dmax | Compound |
| --- | --- |
| ≥ 50% | N#Cc1ccc(O[C@H]2CC[C@H](NC(=O)c3ccc(N4CCC(CN5CCC(n6ncc7c(N8CCC(=O)NC8=O)cccc76)CC5)CC4)nc3)CC2)cc1C(F)(F)F [EAR40, N-((1r,4r)-4-(4-Cyano-3-(trifluoromethyl)phenoxy)cyclohexyl)-6-(4-((4-(4-(2,4-dioxotetrahydropyrimidin-1(2H)-yl)-1H-indazol-1-yl)piperidin-1-yl)methyl)piperidin-1-yl)nicotinamide hydrochloride] |
| ≥ 50% | N#Cc1ccc(O[C@H]2CC[C@H](NC(=O)c3ccc(N4CCC(CN5CCC(n6ccc7c(N8CCC(=O)NC8=O)cccc76)CC5)CC4)nn3)CC2)cc1C(F)(F)F [EAR24, N-((1r,4r)-4-(4-Cyano-3-(trifluoromethyl)phenoxy)cyclohexyl)-6-(4-((4-(4-(2,4-dioxotetrahydropyrimidin-1(2H)-yl)-1H-indol-1-yl)piperidin-1-yl)methyl)piperidin-1-yl)pyridazine-3-carboxamide] |
| ≥ 50% | N#Cc1ccc(O[C@H]2CC[C@H](NC(=O)c3ccc(N4CCO[C@@H](CN5CCC(n6ccc7c(N8CCC(=O)NC8=O)cccc76)CC5)C4)nn3)CC2)cc1Cl [EAR125, N-((1r,4S)-4-(3-Chloro-4-cyanophenoxy)cyclohexyl)-6-((S)-2-((4-(4-(2,4-dioxotetrahydropyrimidin-1(2H)-yl)-1H-indol-1-yl)piperidin-1-yl)methyl)morpholino)pyridazine-3-carboxamide] |
| ≥ 50% | CN(C)C(=O)c1cc(N2CCC(=O)NC2=O)c2ccn(C3CCN(CC4CCN(c5ccc(C(=O)N[C@H]6CC[C@H](Oc7ccc(C#N)c(Cl)c7)CC6)nn5)CC4)CC3)c2c1 [EAR35, 1-(1-((1-(6-(((1r,4r)-4-(3-Chloro-4-cyanophenoxy)cyclohexyl)carbamoyl)pyridazin-3-yl)piperidin-4-yl)methyl)piperidin-4-yl)-4-(2,4-dioxotetrahydropyrimidin-1(2H)-yl)-N,N-dimethyl-1H-indole-6-carboxamide] |
| ≥ 50% | N#Cc1ccc(O[C@H]2CC[C@H](NC(=O)c3cnc(N4CCC(CN5CCC(n6ccc7c(N8CCC(=O)NC8=O)ncnc76)CC5)CC4)cn3)CC2)cc1Cl [EAR196, N-((1r,4r)-4-(3-Chloro-4-cyanophenoxy)cyclohexyl)-5-(4-((4-(4-(2,4-dioxotetrahydropyrimidin-1(2H)-yl)-7H-pyrrolo[2,3-d]pyrimidin-7-yl)piperidin-1-yl)methyl)piperidin-1-yl)pyrazine-2-carboxamide hydrochloride] |
| ≥ 50% | N#Cc1ccc(O[C@H]2CC[C@H](NC(=O)c3ccc(N4CCC(CN5CCC(n6ccc7c(N8CCC(=O)NC8=O)cncc76)CC5)CC4)nn3)CC2)cc1C(F)(F)F [EAR45, N-((1r,4r)-4-(4-Cyano-3-(trifluoromethyl)phenoxy)cyclohexyl)-6-(4-((4-(4-(2,4-dioxotetrahydropyrimidin-1(2H)-yl)-1H-pyrrolo[2,3-c]pyridin-1-yl)piperidin-1-yl)methyl)piperidin-1-yl)pyridazine-3-carboxamide] |
| ≥ 50% | N#Cc1ccc(O[C@H]2CC[C@H](NC(=O)c3ccc(N4CCC5(CC(CN6CCC(n7ncc8c(N9CCC(=O)NC9=O)cccc87)CC6)C5)C4)nn3)CC2)cc1Cl (some centres unmarked) [EAR233, N-((1r,4r)-4-(3-chloro-4-cyanophenoxy)cyclohexyl)-6-(2-((4-(4-(2,4-dioxotetrahydropyrimidin-1(2H)-yl)-1H-indazol-1-yl)piperidin-1-yl)methyl)-6-azaspiro[3.4]octan-6-yl)pyridazine-3-carboxamide] |
| ≥ 50% | N#Cc1ccc(O[C@H]2CC[C@H](NC(=O)c3ccc(N4CCC(CN5CC[C@H](n6ccc7c(N8CCC(=O)NC8=O)cccc76)[C@@H](F)C5)CC4)nn3)CC2)cc1Cl [EAR145, N-((1r,4r)-4-(3-Chloro-4-cyanophenoxy)cyclohexyl)-6-(4-(((3S,4S)-4-(4-(2,4-dioxotetrahydropyrimidin-1(2H)-yl)-1H-indol-1-yl)-3-fluoropiperidin-1-yl)methyl)piperidin-1-yl)pyridazine-3-carboxamide, hydrochloride] |
| ≥ 50% | CC(C)n1ccc2c(N3CCC(=O)NC3=O)cc(C(=O)N(C)CC3CCN(CCCCOc4ccc(C(=O)N[C@H]5CC[C@H](Oc6ccc(C#N)c(Cl)c6)CC5)nc4)CC3)cc21 [EAR65, N-((1-(4-((6-(((1r,4r)-4-(3-Chloro-4-cyanophenoxy)cyclohexyl)carbamoyl)pyridin-3-yl)oxy)butyl)piperidin-4-yl)methyl)-4-(2,4-dioxotetrahydropyrimidin-1(2H)-yl)-1-isopropyl-N-methyl-1H-indole-6-carboxamide] |
| ≥ 50% | N#Cc1ccc(O[C@H]2CC[C@H](NC(=O)c3ccc(N4CCC(CN5CCC(n6ccc7c(N8CCC(=O)NC8=O)cccc76)CC5)CC4)nc3)CC2)cc1C(F)(F)F [AR12, N-((1r,4r)-4-(4-Cyano-3-(trifluoromethyl)phenoxy)cyclohexyl)-6-(4-((4-(4-(2,4-dioxotetrahydropyrimidin-1(2H)-yl)-1H-indol-1-yl)piperidin-1-yl)methyl)piperidin-1-yl)nicotinamide] |
| ≥ 50% | CC1(C)[C@H](NC(=O)c2ccc(N3CCC(CN4CCC(n5ccc6c(N7CCC(=O)NC7=O)nccc65)CC4)CC3)nc2)C(C)(C)[C@H]1Oc1cnc(C#N)c(Cl)c1 [EAR259, N-((1r,3r)-3-((5-Chloro-6-cyanopyridin-3-yl)oxy)-2,2,4,4-tetramethylcyclobutyl)-6-(4-((4-(4-(2,4-dioxotetrahydropyrimidin-1(2H)-yl)-1H-pyrrolo[3,2-c]pyridin-1-yl)piperidin-1-yl)methyl)piperidin-1-yl)nicotinamide] |

| Compound | Dmax |
| --- | --- |
| C[C@@H]1CN(C(=O)Nc2ccc(OCCCCN3CCC(n4ccc5c(N6CCC(=O)NC6=O)cccc54)CC3)nc2)[C@@H](C)CN1c1ccc(C#N)c(Cl)c1 [EAR121, (2S,5R)-4-(3-chloro-4-cyanophenyl)-N-(6-(4-(4-(4-(2,4-dioxotetrahydropyrimidin-1(2H)-yl)-1H-indol-1-yl)piperidin-1-yl)butoxy)pyridin-3-yl)-2,5-dimethylpiperazine-1-carboxamide] | ≥ 50% |
| CC(C)n1ccc2c(N3CCC(=O)NC3=O)cc(C(=O)N(C)CC3CCN(C4CCN(c5ccc(N6C(=S)N(c7ccc(C#N)c(C(F)(F)F)c7)C(=O)C6(C)C)cc5)CC4)CC3)cc21 [EAR88, N-((1′-(4-(3-(4-Cyano-3-(trifluoromethyl)phenyl)-5,5-dimethyl-4-oxo-2-thioxoimidazolidin-1-yl)phenyl)-[1,4′-bipiperidin]-4-yl)methyl)-4-(2,4-dioxotetrahydropyrimidin-1(2H)-yl)-1-isopropyl-N-methyl-1H-indole-6-carboxamide formate] | ≥ 50% |
| C[C@@H]1CN(c2ccc(C#N)c(Cl)c2)[C@@H](C)CN1C(=O)c1cnc(N2CCC(CN3CCC(n4ncc5c(N6CCC(=O)NC6=O)cncc54)CC3)CC2)cn1 [EAR150, 2-Chloro-4-((2S,5R)-4-(5-(4-((4-(4-(2,4-dioxotetrahydropyrimidin-1(2H)-yl)-1H-pyrazolo[3,4-c]pyridin-1-yl)piperidin-1-yl)methyl)piperidin-1-yl)pyrazine-2-carbonyl)-2,5-dimethylpiperazin-1-yl)benzonitrile] | ≥ 50% |
| CC1(C)C(=O)N(c2ccc(C#N)c(C(F)(F)F)c2)C(=S)N1c1ccc(N2CCC(CN3CCC(n4ncc5c(N6CCC(=O)NC6=O)cccc54)CC3)CC2)cc1 [EAR95, 4-(3-(4-(4-((4-(4-(2,4-Dioxotetrahydropyrimidin-1(2H)-yl)-1H-indazol-1-yl)piperidin-1-yl)methyl)piperidin-1-yl)phenyl)-4,4-dimethyl-5-oxo-2-thioxoimidazolidin-1-yl)-2-(trifluoromethyl)benzonitrile] | ≥ 50% |
| C[C@@H]1CN(C(=O)Nc2cnc(N3CCC(CN4CCC(n5ccc6c(N7CCC(=O)NC7=O)cccc65)CC4)CC3)nc2)[C@@H](C)CN1c1ccc(C#N)c(Cl)c1 [EAR116, (2S,5R)-4-(3-Chloro-4-cyanophenyl)-N-(2-(4-((4-(4-(2,4-dioxotetrahydropyrimidin-1(2H)-yl)-1H-indol-1-yl)piperidin-1-yl)methyl)piperidin-1-yl)pyrimidin-5-yl)-2,5-dimethylpiperazine-1-carboxamide] | ≥ 50% |
| C[C@@H]1CN(c2ccc(C#N)c(Cl)c2)[C@@H](C)CN1C(=O)Nc1cnc(N2CCC(CN3CCC(n4ccc5c(N6CCC(=O)NC6=O)cncc54)CC3)CC2)nc1 [EAR106, (2R,5S)-4-(3-Chloro-4-cyanophenyl)-N-(2-(4-((4-(4-(2,4-dioxotetrahydropyrimidin-1(2H)-yl)-1H-pyrrolo[2,3-c]pyridin-1-yl)piperidin-1-yl)methyl)piperidin-1-yl)pyrimidin-5-yl)-2,5-dimethylpiperazine-1-carboxamide] | ≥ 50% |
